Some results are limits rather than exact numbers.

As a reminder, the IC50 is the concentration that gives 50% inhibition. The term EC50 denotes the concentration that produces a half-maximal response.

One assay deals with PLK1 (Homo sapiens, UniProt P53350). The assay can be described thus: Biochemical results, IC50 PLK1.
For another assay, the target named is T1, Pim-1 (Homo sapiens, UniProt P11309).
T1 construct: full-length human recombinant His6-labelled Pim-1, Pim-2 or Pim-3 protein; His6; made in house
T1 sequence (P11309 whole entry): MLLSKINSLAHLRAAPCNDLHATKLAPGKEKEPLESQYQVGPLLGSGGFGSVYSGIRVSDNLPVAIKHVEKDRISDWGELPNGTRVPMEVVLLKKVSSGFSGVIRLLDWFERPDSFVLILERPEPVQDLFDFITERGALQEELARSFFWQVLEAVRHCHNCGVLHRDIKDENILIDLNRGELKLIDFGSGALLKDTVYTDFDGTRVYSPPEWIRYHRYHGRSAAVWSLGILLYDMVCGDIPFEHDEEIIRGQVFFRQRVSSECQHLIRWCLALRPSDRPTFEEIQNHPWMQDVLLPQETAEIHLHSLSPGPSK
Kind of assay: TR-FRET assay of Pim kinase activity (phosphorylation of Bad Ser112), Pim-1. In kind it is biochemical. The following applies: ATP 40 μM, read-out: IC50 Pim1. As to the method:
(§1) In order to determine the inhibition of Pim kinase activity, the compounds of the invention are tested in accordance with a routinely-used in-vitro TR-FRET assay (“Time Resolved-Fluorescence Resonance Energy Transfer”). […] For the assay, the following reagents are used:
(§2) Pim kinase—full-length human recombinant His6-labelled Pim-1, Pim-2 or Pim-3 protein (prepared according to J. Mol. Biol. (2005) 348, 183-193); Bad—full-length human recombinant His6-labelled Bad protein (prepared according to J. Mol. Biol. (2005) 348, 183-193); α-His6-APC—mouse monoclonal antibody conjugated to allophycocyanine SureLight™ directed against the His6 label (Perkin-Elmer, No. AD0059H, Waltham, Mass., United States); α-P˜Bad-Eu—mouse monoclonal antibody (Cell Signaling Technology #9296B, Danvers, Mass., United States) directed against phosphoBad (Ser112) (7E11) labelled on request by Perkin-Elmer with the reagent LANCE™ Eu-W1024.
(§3) The assay is based on the LANCE™ technology from Perkin-Elmer: the Eu-labelled antibody binds to phospho-Ser112 and generates a TR-FRET signal by interaction with the […] antibody directed against His6, bound to the His6 label of Bad. The TR-FRET signal is detected using a SpectraMax M5 plate reader (Molecular Devices) with the following settings: λex=340 nm, λem1=615 nm, λem2=665 nm. The ratio of the fluorescence signal at 665 nm to the fluorescence signal at 615 nm is used as the signal reading for the IC50 (calculations based on the 4-parameter logistic model). The assay is performed in 384-well format; the liquid manipulations are performed using a Beckmann 3000 liquid manipulation station. The test compounds are tested at 10 concentration points in duplicate; the highest concentration of compound is typically equal to 30 μM. The ATP concentration is equal to 40 μM.
In general terms: TR-FRET usually uses a lanthanide donor and a delayed reading to cut background.

Another assay deals with MV4-11. Kind of assay: Cell viability assay (CellTiter-Blue), MV4-11. The assay is classed as cell-based. The following applies: Homo sapiens, read-out: EC50 MV4-11 μM (acute myeloid leukemia), MV4-11 cells, read-out: EC50 MV4-11 μM (myeloma). As to the method: (§4) The representative compounds of the invention are also screened as regards their effects on cell proliferation and viability, using a variety of tumoral cell lines of human source, representative of different pathological indications. These cell lines include:
(§5) In order to measure the viability, the tumour cells are incubated in 96-well or 384-well format for 48, 72 or 96 hours, preferably 72 hours, with a compound of the invention at dilutions of a factor 3, with, in general, nine doses in total, the highest dose being equal to 10 μM or 30 μM. The cell viability is evaluated by adding CellTiter-Blue® (Promega, Madison, Wis., United States) for 4 hours and endpoint readings are taken using a SpectraMax Genmini EM plate reader (Molecular Devices, Sunnyvale, Calif., United States). The CellTiter-Blue® cell viability assay measures the ability of the cells in culture to reduce resazurin to resorufin, the intensity of the fluorescence signal being directly proportional to the number of live cells. The EC50 represents the concentration of compound that leads to a 50% reduction of the viability/proliferative expansion of the cells.
A general note: The colour change of resazurin is a common sign of viable cells or microbes.

Another assay deals with T2, Pim-3 (Homo sapiens, UniProt Q86V86).
T2 construct: full-length human recombinant His6-labelled Pim-1, Pim-2 or Pim-3 protein; His6; made in house
Kind of assay: TR-FRET assay of Pim kinase activity (phosphorylation of Bad Ser112), Pim-3. The assay is classed as biochemical. The following applies: ATP 40 μM, read-out: IC50 Pim3. As to the method:
as §1, §2, §3

For another assay, the system named is EOL-1. The assay can be described thus: Cell viability assay (CellTiter-Blue), EOL-1.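 Further: EOL-1 is an acute myeloid eosinophilic leukaemia line not a lymphoma.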 The following applies: Homo sapiens, EOL1, read-out: EC50 EOL-1 μM (eosinophilic leukaemia), EOL-1 cells, read-out: EC50 EOL-1 μM (lymphoma). The assay is classed as cell-based.
Text: as §4
Models of Haematological Cancers: • TF-1 (acute myelogenic leukaemia; AML M6 at the time of diagnosis); • K G-1 (AML; erythroleukaemia evolving into AML); • KG-1a (AML; subclone derived from immature KG-1); • EOL-1 (AML: eosinophilic leukaemia); • PL-21 (AML; M3); • ML-2 (AML; T-NHL evolving into T-ALL evolving into AML M4); • HL-60 (AML, M3); • Kasumi-1 (AML); • GDM-1 (AML); • K-562 (CML—chronic myelogenic leukaemia; blastic crisis); • JURL-MK1 (CML; blastic crisis); • DND-41 (T-ALL—T-cell acute lymphoblastic leukaemia); • Jurkat (T-ALL); NALM-6 (B-ALL B-cell ALL); • CEM (ALL; lymphosarcoma evolving into ALL); • Jeko-1 (B-NHL—B-cell non-Hodgkin lymphoma; lymphoma with coat cells derived from a large-cell variant in leukaemic transformation); • WSU-DLCL2 (B-NHL; diffuse lymphoma with large B cells); • RL (B-NHL; undifferentiated diffuse); • OCl-Ly10 (B-NHL); • DoHH-2 (B-NHL); • RPMI-8226 (MM—multiple myelomas); • JVM-2 (B-CLL—B-cell chronic lymphocytic leukaemia); and • JVM-3 (B-CLL).
as §5

The target of the next assay is T3, Pim-2 (Homo sapiens, UniProt Q9P1W9).
T3 construct: full-length human recombinant His6-labelled Pim-1, Pim-2 or Pim-3 protein; His6; made in house
T3 sequence (Q9P1W9 whole entry): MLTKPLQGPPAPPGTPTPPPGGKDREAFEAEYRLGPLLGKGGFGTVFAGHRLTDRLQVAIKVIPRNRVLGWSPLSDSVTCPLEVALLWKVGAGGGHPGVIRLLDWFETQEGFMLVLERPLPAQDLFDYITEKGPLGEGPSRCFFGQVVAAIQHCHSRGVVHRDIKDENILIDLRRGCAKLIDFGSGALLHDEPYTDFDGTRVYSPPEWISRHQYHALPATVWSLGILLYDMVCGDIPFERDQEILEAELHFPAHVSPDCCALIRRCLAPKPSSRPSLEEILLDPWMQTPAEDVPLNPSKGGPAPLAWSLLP
The assay can be described thus: TR-FRET assay of Pim kinase activity (phosphorylation of Bad Ser112), Pim-2. In kind it is biochemical. The settings on record: ATP 40 μM, read-out: IC50 Pim2. As to the method:
as §1, §2, §3

For another assay, the target named is CDK1 (Homo sapiens, UniProt P06493). The assay can be described thus: Biochemical results, IC50 CDK1.
Chain of CDK1 (P06493 whole entry, species assumed): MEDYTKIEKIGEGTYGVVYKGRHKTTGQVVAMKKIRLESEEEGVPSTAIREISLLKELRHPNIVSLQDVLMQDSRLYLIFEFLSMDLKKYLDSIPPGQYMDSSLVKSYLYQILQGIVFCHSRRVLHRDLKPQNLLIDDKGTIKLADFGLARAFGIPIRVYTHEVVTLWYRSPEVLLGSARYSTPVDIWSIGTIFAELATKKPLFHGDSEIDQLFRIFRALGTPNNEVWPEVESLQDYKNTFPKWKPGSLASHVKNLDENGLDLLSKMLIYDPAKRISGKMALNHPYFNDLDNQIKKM
Chain of CDK1 (P14635 whole entry partner, species assumed): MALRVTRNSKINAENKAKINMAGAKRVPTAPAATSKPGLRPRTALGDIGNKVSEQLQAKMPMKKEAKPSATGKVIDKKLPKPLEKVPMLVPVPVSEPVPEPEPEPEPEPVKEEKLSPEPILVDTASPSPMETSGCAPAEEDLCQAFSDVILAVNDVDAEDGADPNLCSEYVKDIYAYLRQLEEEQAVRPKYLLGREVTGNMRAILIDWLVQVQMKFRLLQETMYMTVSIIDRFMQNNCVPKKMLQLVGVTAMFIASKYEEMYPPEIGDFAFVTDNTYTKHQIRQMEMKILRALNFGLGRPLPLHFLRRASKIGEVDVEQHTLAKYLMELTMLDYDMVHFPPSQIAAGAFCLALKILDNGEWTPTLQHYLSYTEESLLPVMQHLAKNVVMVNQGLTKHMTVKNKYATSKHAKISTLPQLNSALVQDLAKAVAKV

Chain of PLK1 (P53350 whole entry, species assumed): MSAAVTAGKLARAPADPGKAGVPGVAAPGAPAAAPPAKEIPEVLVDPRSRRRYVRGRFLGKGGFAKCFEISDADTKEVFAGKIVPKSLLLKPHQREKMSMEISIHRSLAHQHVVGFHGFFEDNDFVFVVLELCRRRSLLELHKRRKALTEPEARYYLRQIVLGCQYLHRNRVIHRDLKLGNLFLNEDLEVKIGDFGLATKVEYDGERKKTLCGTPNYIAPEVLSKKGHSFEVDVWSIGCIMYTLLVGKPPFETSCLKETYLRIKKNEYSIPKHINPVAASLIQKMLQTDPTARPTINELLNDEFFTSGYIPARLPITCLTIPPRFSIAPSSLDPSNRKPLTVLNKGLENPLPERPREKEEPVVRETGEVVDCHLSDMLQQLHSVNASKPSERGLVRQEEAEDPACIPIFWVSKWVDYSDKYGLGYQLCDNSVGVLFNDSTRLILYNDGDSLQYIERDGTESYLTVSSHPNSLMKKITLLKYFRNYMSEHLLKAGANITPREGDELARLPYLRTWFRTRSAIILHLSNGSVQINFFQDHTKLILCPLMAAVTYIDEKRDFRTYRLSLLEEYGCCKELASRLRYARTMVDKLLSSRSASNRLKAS

`CN1CC(NC(=O)c2ccc(-c3c(F)cnc4[nH]c5cnc(-c6cccnc6)cc5c34)cc2)C1` [Example 56, 4-[3-fluoro-6-(pyridin-3-yl)-9H-pyrrolo[2,3-b:5,4-c′]dipyridin-4-yl]-N-(1-methylazetidin-3-yl)benzamide]: the IC50 on PLK1 was 100 to 1000 nM; at Pim-1, below 100 nM; at Pim-3 it was below 100 nM; at Pim-2, below 100 nM; against CDK1 it was 100 to 1000 nM. In addition, the EC50 with MV4-11 and in the assay with EOL-1 was below 100 nM in each case.

With `CCN(CC1CCN(C)C1)C(=O)c1ccc(-c2c(F)cnc3[nH]c4cnc(-c5cccnc5)cc4c23)cc1` (stereo not shown) [Example 79, N-ethyl-4-[3-fluoro-6-(pyridin-3-yl)-9H-pyrrolo[2,3-b:5,4-c′]dipyridin-4-yl]-N-[(1-methylpyrrolidin-3-yl)methyl]benzamide], the IC50 was 100 to 1000 nM on PLK1; below 100 nM at Pim-1; below 100 nM on Pim-3; 100 to 1000 nM on Pim-2; 1000 to 5000 nM against CDK1.

In the case of `O=C(c1ccc(-c2c(F)cnc3[nH]c4cnc(-c5cccnc5)cc4c23)cc1)N1CCC(N2CCCC2)C1` (stereo not shown) [Example 80, 1.3′-bipyrrolidin-1′-yl{4-[3-fluoro-6-(pyridin-3-yl)-9H-pyrrolo[2,3-b:5,4-c′]dipyridin-4-yl]phenyl}methanone], the half-inhibitory concentration (IC50) at PLK1 was 100 to 1000 nM; at Pim-1, below 100 nM; on Pim-3 it was below 100 nM; at Pim-2, 100 to 1000 nM; on CDK1, 100 to 1000 nM.

Turning to `CN1CCC(N(C)C(=O)c2ccc(-c3c(F)cnc4[nH]c5cnc(-c6cccnc6)cc5c34)cc2)CC1` [Example 81, 4-[3-fluoro-6-(pyridin-3-yl)-9H-pyrrolo[2,3-b:5,4-c′]dipyridin-4-yl]-N-methyl-N-(1-methylpiperidin-4-yl)benzamide], the IC50 at PLK1 is 100 to 1000 nM; at Pim-1, below 100 nM; on Pim-3 it was below 100 nM; on Pim-2 it was 1000 to 5000 nM; at CDK1, 1000 to 5000 nM.

In the case of `O=C(NCc1ccnc(O)c1)c1ccc(-c2c(F)cnc3[nH]c4cnc(-c5cccnc5)cc4c23)cc1` [Example 82, 4-[3-fluoro-6-(pyridin-3-yl)-9H-pyrrolo[2,3-b:5,4-c′]dipyridin-4-yl]-N-[(2-hydroxypyridin-4-yl)methyl]benzamide], the IC50 on PLK1 was 100 to 1000 nM; at Pim-1, below 100 nM; at Pim-3, below 100 nM; on Pim-2 it was 100 to 1000 nM; against CDK1, 100 to 1000 nM.

Take `N[C@H]1CCCC[C@@H]1NC(=O)c1ccc(-c2c(F)cnc3[nH]c4cnc(-c5cccnc5)cc4c23)cc1` [Example 84, N-[(1S,2S)-2-aminocyclohexyl]-4-[3-fluoro-6-(pyridin-3-yl)-9H-pyrrolo[2,3-b:5,4-c′]dipyridin-4-yl]benzamide]: the concentration for half-maximal inhibition (IC50) against PLK1 was 100 to 1000 nM; on Pim-1, below 100 nM; on Pim-3, below 100 nM; at Pim-2 it was below 100 nM; against CDK1 it was 100 to 1000 nM.

Regarding `CCNCCNC(=O)c1ccc(-c2c(F)cnc3[nH]c4cnc(-c5cccnc5)cc4c23)cc1` [Example 87, N-[2-(ethylamino)ethyl]-4-[3-fluoro-6-(pyridin-3-yl)-9H-pyrrolo[2,3-b:5,4-c′]dipyridin-4-yl]benzamide], the IC50 was 100 to 1000 nM at PLK1; below 100 nM on Pim-1; below 100 nM at Pim-3; below 100 nM on Pim-2; 100 to 1000 nM at CDK1. For the same compound, the EC50 in the assay with MV4-11 and in the assay on EOL-1 was 100 to 1000 nM throughout.

As to `CNCCNC(=O)c1ccc(-c2c(F)cnc3[nH]c4cnc(-c5cccnc5)cc4c23)cc1` [Example 88, 4-[3-fluoro-6-(pyridin-3-yl)-9H-pyrrolo[2,3-b:5,4-c′]dipyridin-4-yl]-N-[2-(methylamino)ethyl]benzamide], the IC50 on PLK1 was 100 to 1000 nM; at Pim-1, below 100 nM; on Pim-3 it was below 100 nM; on Pim-2, below 100 nM; against CDK1, 100 to 1000 nM.

In the case of `NC1(CNC(=O)c2ccc(-c3c(F)cnc4[nH]c5cnc(-c6cccnc6)cc5c34)cc2)CC1` [Example 89, N-[(1-aminocyclopropyl)methyl]-4-[3-fluoro-6-(pyridin-3-yl)-9H-pyrrolo[2,3-b:5,4-c′]dipyridin-4-yl]benzamide], the IC50 was 100 to 1000 nM against PLK1; below 100 nM on Pim-1; below 100 nM on Pim-3; below 100 nM at Pim-2; 100 to 1000 nM at CDK1. Further, the EC50 in the assay on MV4-11 and in the assay with EOL-1 was 100 to 1000 nM throughout.

As to `NCC(F)(F)CNC(=O)c1ccc(-c2c(F)cnc3[nH]c4cnc(-c5cccnc5)cc4c23)cc1` [Example 90, N-(3-amino-2,2-difluoropropyl)-4-[3-fluoro-6-(pyridin-3-yl)-9H-pyrrolo[2,3-b:5,4-c′]dipyridin-4-yl]benzamide], the IC50 was 100 to 1000 nM at PLK1; below 100 nM at Pim-1; below 100 nM at Pim-3; 100 to 1000 nM at Pim-2; 100 to 1000 nM on CDK1. Further, the EC50 in the assay with MV4-11 and in the assay on EOL-1 was 100 to 1000 nM throughout.

Take `CC(N)(CNC(=O)c1ccc(-c2c(F)cnc3[nH]c4cnc(-c5cccnc5)cc4c23)cc1)C(F)(F)F` (stereo not shown) [Example 91, N-(2-amino-3,3,3-trifluoro-2-methylpropyl)-4-[3-fluoro-6-(pyridin-3-yl)-9H-pyrrolo[2,3-b:5,4-c′]dipyridin-4-yl]benzamide]: the half-maximal inhibitory concentration (IC50) fell in the range of 100 to 1000 nM on PLK1; 100 to 1000 nM at Pim-1; 100 to 1000 nM on Pim-3; 1000 to 5000 nM on Pim-2; 100 to 1000 nM against CDK1.

Consider `CN1CCN(NC(=O)c2ccc(-c3c(F)cnc4[nH]c5cnc(-c6cnn(C)c6)cc5c34)cc2)CC1` [Example 99, 4-[3-fluoro-6-(1-methyl-1H-pyrazol-4-yl)-9H-pyrrolo[2,3-b:5,4-c′]dipyridin-4-yl]-N-(4-methylpiperazin-1-yl)benzamide], for which the half-inhibitory concentration (IC50) at PLK1 was above 5000 nM; on Pim-1, below 100 nM; at Pim-3 it was below 100 nM; at Pim-2, 100 to 1000 nM; on CDK1, 1000 to 5000 nM.

On to `Cn1cc(-c2cc3c(cn2)[nH]c2ncc(F)c(-c4ccc(C(N)=O)cc4)c23)cn1` [Example 104, 4-[3-fluoro-6-(1-methyl-1H-pyrazol-4-yl)-9H-pyrrolo[2,3-b:5,4-c′]dipyridin-4-yl]benzamide], for which the IC50 is 100 to 1000 nM at PLK1; below 100 nM at Pim-1; below 100 nM on Pim-3; 100 to 1000 nM on Pim-2; 100 to 1000 nM on CDK1.

The values are drawn from patent publication US20120208809A1, “9H-PYRROLO[2,3-B: 5,4-C'] DIPYRIDINE AZACARBOLINE DERIVATIVES, PREPARATION THEREOF, AND THERAPEUTIC USE THEREOF” (SANOFI, priority 2009, published 2012).
